From article PMC7830570, “Substrate Scope for Human Histone Lysine Acetyltransferase KAT8” (International Journal of Molecular Sciences, 2021)

What was measured:
[1] = molecular target: T1, human KAT8 (residues 125–458) (Homo sapiens, UniProt Q9H7Z6); conditions: lysine analogue on histone peptide; cited from earlier work
T1 construct: Recombinant human KAT8 (residues 125–458) was expressed in E. coli; His tag; made in house; host or cells: E. coli
T1 sequence (Q9H7Z6 125-458): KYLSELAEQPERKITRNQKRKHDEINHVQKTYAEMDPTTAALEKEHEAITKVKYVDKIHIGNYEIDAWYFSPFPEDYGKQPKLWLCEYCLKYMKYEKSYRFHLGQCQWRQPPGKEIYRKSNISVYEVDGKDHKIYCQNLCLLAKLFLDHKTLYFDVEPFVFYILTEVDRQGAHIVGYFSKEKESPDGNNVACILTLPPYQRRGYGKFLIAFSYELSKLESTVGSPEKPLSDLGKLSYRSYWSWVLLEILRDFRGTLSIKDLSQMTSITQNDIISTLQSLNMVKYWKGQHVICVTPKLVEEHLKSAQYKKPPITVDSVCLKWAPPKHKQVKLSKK
Procedure: The biocatalytic potential of KAT8 was assessed through a MALDI-TOF MS based enzymatic assay. Human KAT8 was incubated in the presence of H4K*16 peptides and AcCoA under “standard conditions” (2 µM KAT8, 100 µM histone peptide, 300 µM AcCoA; assay buffer: 50 mM Hepes, 0.1 mM EDTA, 1 mM DTT, pH = 8.0) and the production of acetylated peptides was monitored at different time points. […] KAT8-catalysed acetylation of H4K16 was quantitative after 1 h, in line w ... || Subsequently, we investigated the role of the geometrically constrained and steric lysine analogues for KAT8 catalysis. The KAT8-catalysed reaction of H4KE16 produced 64% of acetylated peptide after 1 h, and reached completion within 3 h (Figure 3i and Figure S17).

[2] = molecular target: T1, human KAT8 (residues 125–458); assay: MALDI-TOF MS enzymatic assay of KAT8-catalysed acetylation of H4K*16 histone peptides; type: biochemical; conditions: standard conditions: 2 µM KAT8, 100 µM histone peptide, 300 µM AcCoA, 50 mM HEPES, 0.1 mM EDTA, 1 mM DTT, pH 8.0, 37 °C
Procedure: The biocatalytic potential of KAT8 was assessed through a MALDI-TOF MS based enzymatic assay. Human KAT8 was incubated in the presence of H4K*16 peptides and AcCoA under “standard conditions” (2 µM KAT8, 100 µM histone peptide, 300 µM AcCoA; assay buffer: 50 mM Hepes, 0.1 mM EDTA, 1 mM DTT, pH = 8.0) and the production of acetylated peptides was monitored at different time points. […] KAT8-catalysed acetylation of H4K16 was quantitative after 1 h, in line with previous findings (Figure 3a and Figure S17). […] This is an interesting observation, given the well-documented capacity of some histone lysine methyltransferases (KMTs) that introduce higher methylation states (i.e., Kme2 and Kme3) on histone tails starting from Kme as a substrate. […]
KAT8 enzymatic activity towards H4K*16 histone peptides was measured at different time points under standard conditions (2 µM KAT8, 100 µM peptide, 300 µM AcCoA) in reaction buffer (50 mM HEPES, 0.1 mM EDTA, 1 mM DTT, pH = 8.0) as previously described The reactions were performed in a final volume of 50 µL and shaken at 37 °C, using a Thermomixer C (750 rpm). KAT8 activity was stopped at a given time point by the addition of TFA 10% in Milli-Q water, and reactions were analysed by MALDI-TOF MS employing α-Cyano-4-hydroxycinnamic acid (CHCA) matrix.

[3] = molecular target: T1, human KAT8 (residues 125–458); assay: MALDI-TOF MS kinetics assay of KAT8-catalysed acetylation under steady-state conditions; type: biochemical; conditions: pH 7.4, 37 °C
Procedure: Next, we investigated the catalytic efficiencies for the histone peptides that were observed as KAT8 substrates. Kinetics analyses were carried out under steady-state conditions by incubating saturating concentrations of AcCoA against different concentrations of histone peptides.
Histone peptides kinetics evaluation was carried out with a MALDI-TOF MS assay under steady-state conditions as previously described. Briefly, dilution series of H4K*16 peptides (1050 or 700–0 µM) were incubated with AcCoA (100 µM; > 5 x KM value of AcCoA) and the reactions were started by the addition of KAT8 (570 nM) in kinetic buffer (50 mM HEPES, 0.1 mM EDTA, 0.01% TRITON-X, pH = 7.4). AcCoA stock solutions in Milli-Q water were calibrated using a NanoDrop 2000 spectrophotometer (Thermo Scientific, Waltham, MA, USA), with molar extinction coefficient ε260nm = 16,400 M^−1 cm^−1. Reactions were incubated for 20 min at 37 °C, shaken at 750 rpm and quenched with TFA 10% in Milli-Q water at different time points within the linear production of acetylated peptides. Quantification of the acetylated peptide produced was extrapolated, at any concentration point, with FlexAnalysis software, considering all the ionic species. Kinetic parameters were obtained by fitting V0 values and histone peptide concentrations to the Michaelis–Menten equation using the GraphPad Prism 5 software. Kinetic experiments were carried out in replicates (n = 2 or 3) and final values are reported as the mean value ± SD.

Substance | KAT8 substrate quality [1] | acetylated peptide produced after 1 h [2] | kcat^app ([3]; 570 nM KAT8, 100 µM AcCoA, peptide 1050 or 700–0 µM, 50 mM HEPES, 0.1 mM EDTA, 0.01% TRITON-X, mean ± SD, n = 2 or 3, SD) [s⁻¹] | Km ([3]; 570 nM KAT8, 100 µM AcCoA, peptide 1050 or 700–0 µM, 50 mM HEPES, 0.1 mM EDTA, 0.01% TRITON-X, mean ± SD, n = 2 or 3, SD, read-out: KM^app) [µM] | kcat^app/KM^app ([3]; catalytic efficiency from kcat^app and KM^app) [M⁻¹ s⁻¹]
γ-thialysine | excellent substrate |  |  |  | 
GGAK16RHRKVLRDNIQ [H4K16, histone H4 peptide, residues 13–27, with natural lysine at position 16] |  | quantitative | 0.25 ± 0.013 | 437 ± 107 | 567
homolysine [hK] | good KAT8 substrate |  |  |  | 
